Reference: patent US20260083851A1 (AVILAR THERAPEUTICS, INC., priority 2022, published 2026)
pKd: −log10 of the molar value.

Biological target: T1, ASGP receptor (biotinylated ASGPR) (Homo sapiens, UniProt P07306)
T1 construct: biotin (biotinylated)
T1 sequence (P07306 1-291): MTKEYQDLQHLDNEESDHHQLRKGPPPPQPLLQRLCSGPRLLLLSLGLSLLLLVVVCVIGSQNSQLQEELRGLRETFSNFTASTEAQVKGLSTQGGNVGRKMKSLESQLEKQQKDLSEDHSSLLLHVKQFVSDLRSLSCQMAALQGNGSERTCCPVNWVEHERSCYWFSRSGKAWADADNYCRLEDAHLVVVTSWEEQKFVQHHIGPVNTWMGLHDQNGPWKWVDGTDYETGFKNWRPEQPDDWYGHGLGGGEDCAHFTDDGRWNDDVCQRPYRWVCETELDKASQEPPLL
Format: binding
Settings: SPR, Biacore 8K, 25° C.; Table 1A; read-out: ASGPR KD

Compound | pKd
NCCOCCOCC(=O)NC[C@H]1OC[C@H](Nc2cncc(C(F)(F)F)n2)[C@@H](O)[C@H]1O [A57, 2-(2-(2-aminoethoxy)ethoxy)-N-(((2R,3R,4R,5S)-3,4-dihydroxy-5-((6-(trifluoromethyl)pyrazin-2-yl)amino)tetrahydro-2H-pyran-2-yl)methyl)acetamide] | > 5.00
O[C@@H]1[C@H](O)[C@@H](Nc2cncc(C(F)(F)F)n2)CO[C@@H]1COc1cnccn1 [A60, (2R,3R,4R,5S)-2-((pyrazin-2-yloxy)methyl)-5-((6-(trifluoromethyl)pyrazin-2-yl)amino)tetrahydro-2H-pyran-3,4-diol] | > 5.00
O[C@@H]1[C@H](O)[C@@H](Nc2cncc(C(F)(F)F)n2)CO[C@@H]1COc1ncccn1 [A61, (2R,3R,4R,5S)-2-((pyrimidin-2-yloxy)methyl)-5-((6-(trifluoromethyl)pyrazin-2-yl)amino)tetrahydro-2H-pyran-3,4-diol] | > 5.00
O=C(O)CN1CCC(N2CCC(C(=O)NC[C@H]3OC[C@H](Nc4cncc(C(F)(F)F)n4)[C@@H](O)[C@H]3O)CC2)CC1 [A62, 2-(4-((((2R,3R,4R,5S)-3,4-dihydroxy-5-((6-(trifluoromethyl)pyrazin-2-yl)amino)tetrahydro-2H-pyran-2-yl)methyl)carbamoyl)-[1,4′-bipiperidin]-1′-yl)acetic acid] | > 5.00
O=C(NC[C@H]1OC[C@H](Nc2cncc(C(F)(F)F)n2)[C@@H](O)[C@H]1O)c1cccnc1 [A63, N-(((2R,3R,4R,5S)-3,4-dihydroxy-5-((6-(trifluoromethyl)pyrazin-2-yl)amino)tetrahydro-2H-pyran-2-yl)methyl)nicotinamide] | > 5.00
OC[C@H]1CC[C@H](Nc2cncc(C(F)(F)F)n2)[C@@H](O)[C@H]1O [A65, (1R,2S,3R,6S)-3-(hydroxymethyl)-6-((6-(trifluoromethyl)pyrazin-2-yl)amino)cyclohexane-1,2-diol] | > 5.00
O=C(O)c1cc2ccc1CCc1ccc(c(C(=O)NC[C@H]3OC[C@H](Nc4cncc(C(F)(F)F)n4)[C@@H](O)[C@H]3O)c1)CC2 [A66, 4^3-((((2R,3R,4R,5S)-3,4-dihydroxy-5-((6-(trifluoromethyl)pyrazin-2-yl)amino)tetrahydro-2H-pyran-2-yl)methyl)carbamoyl)-1,4(1,4)-dibenzenacyclohexaphane-1^2-carboxylic acid] | > 5.00
O=C(NC[C@H]1OC[C@H](Nc2cncc(C(F)(F)F)n2)[C@@H](O)[C@H]1O)c1ccc(-c2ccccc2)cn1 [A67, N-(((2R,3R,4R,5S)-3,4-dihydroxy-5-((6-(trifluoromethyl)pyrazin-2-yl)amino)tetrahydro-2H-pyran-2-yl)methyl)-5-phenylpicolinamide] | > 5.00
O[C@@H]1[C@H](O)[C@@H](Nc2cncc(C(F)(F)F)n2)CO[C@@H]1CN1CCCNCC1 [A68, (2R,3R,4R,5S)-2-((1,4-diazepan-1-yl)methyl)-5-((6-(trifluoromethyl)pyrazin-2-yl)amino)tetrahydro-2H-pyran-3,4-diol] | > 5.00
O=C(NC[C@H]1OC[C@H](Nc2cncc(C(F)(F)F)n2)[C@@H](O)[C@H]1O)c1ccc2[nH]cnc2n1 [A69, N-(((2R,3R,4R,5S)-3,4-dihydroxy-5-((6-(trifluoromethyl)pyrazin-2-yl)amino)tetrahydro-2H-pyran-2-yl)methyl)-1H-imidazo[4,5-b]pyridine-5-carboxamide] | > 5.00
O[C@@H]1[C@H](O)[C@@H](Nc2cncc(C(F)(F)F)n2)CO[C@@H]1CN1CCCCCC1 [A70, (2R,3R,4R,5S)-2-(azepan-1-ylmethyl)-5-((6-(trifluoromethyl)pyrazin-2-yl)amino)tetrahydro-2H-pyran-3,4-diol] | > 5.00
O=C(NC[C@H]1OC[C@H](Nc2cncc(C(F)(F)F)n2)[C@@H](O)[C@H]1O)c1cnc2ccccc2n1 [A71, N-(((2R,3R,4R,5S)-3,4-dihydroxy-5-((6-(trifluoromethyl)pyrazin-2-yl)amino)tetrahydro-2H-pyran-2-yl)methyl)quinoxaline-2-carboxamide] | > 5.00
